These results are taken from patent US7727511B2, “Agents for imaging soluble a-beta” (priority 2003, dated 2010).

Assay [1] deals with T1, beta-amyloid 1-42 oligomer (20% biotin) (Homo sapiens, UniProt P05067).
T1 construct: 12 μg beta-amyloid 1-42 oligomer (20% biotin); purchased Bachem H-5642; host or cells: synthetic peptide
Kind of assay: SPA competition binding assay against 3H-49b on soluble oligomers. As to conditions: 50 uM unlabeled competitor, 130 nM 3H-49b. As to the method:
Lyophilized Streptavidin-Ysi beads (GE Healthcare) were reconstituted to 100 mg/mL in deioniozed water, and then further diluted in deionized water to give a suspension containing 0.25 mg/10 μl water. Unlabeled 49b and other benzofuran probes were dissolved in DMSO to give a final stock concentration of 15 mM.
For the saturation-binding assay, isotopic dilution of radiolabeled 49b with unlabeled 49b was performed. ^3H-49b was added to 500 uM of unlabeled 49b to a final concentration of 50 μCi/mL ^3H-49b. The probe solution was then serially diluted in PBS to give six solutions giving 6.6, 13.1, 26.3, 52.5, 105, or 210 uM in the final assay well. Each concentration of the probe solution was incubated with 12 μg beta-amyloid 1-42 oligomer (20% biotin) or 1-40 (20% biotin) fibrils in a total volume of 90 μl. Assays were incubated at room temp for 2 hrs before addition of 10 μL YSi-streptavidin (0.25 mg) SPA bead. Assays were set-up in triplicate in 96-well NBS plates (Costar). Assays were incubated overnight and counted the following morning. […] The specific activities of the four probes were different, however the level of activity was the same at the concentrations where the probes were tested. For this assay, 130 nM of ^3H-49b, 90 nM ^3H-cimetidine, 14 nM ^3H-caffeine, and 6 nM ^3H-AZT were tested for direct binding to 12 ug of beta-amyloid-42 oligomer (20% biotin). Assay conditions were the same as described in saturation binding assay. […]
Data analyses were performed using Sigma Plot or GraphPad Prism® version 4. Curves were fitted using non-linear regression. KD values and IC50 values were estimated from the binding curves.
For the competition binding assay between tritium-labeled 49b and various unlabeled benzofuran analogs, assays contained 130 nM ^3H-49b and 50 uM of each of the unlabeled benzofuran analogs. As controls, 10 uM and 50 uM of unlabeled 49b were included in the assays.

In assay [2] the target is T2, A-beta (1-40) fibrils (Homo sapiens, UniProt P05067).
T2 construct: Lyophilized human beta-amyloid 1-40 peptide (Catalog number H-1194, Bachem); purchased Bachem H-1194; host or cells: synthetic peptide
T2 sequence (P05067 672-711 limits assumed): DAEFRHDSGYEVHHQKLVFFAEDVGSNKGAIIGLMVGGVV
Briefly: Fluorescence titration assay, fibrils. It is filed as binding. As to conditions: for Kd: read-out: KD of compound to insoluble A-beta (1-40) fibrils; for binding to A-beta (1-40) fibrils: fluorescence binding assays, stated in words. As for the experimental part:
B. Insoluble A-beta (1-40) fibril formation: Lyophilized human beta-amyloid 1-40 peptide (Catalog number H-1194, Bachem) was solubilized with HFIP to produce a dry clear film following the process described above for beta-amyloid 1-42. The clear film of beta-amyloid 1-40 was diluted with distilled water to achieve a 6 mg/mL concentration. […] The clear solution was diluted to 1 mg/mL with PBS, pH 7.4 to obtain a final concentration of 1 mg/mL beta-amyloid 1-40, and then incubated at 37° C. on an orbital shaker at 200 RPM for 4 days. A cloudy solution was produced, and the fibril production was confirmed by measuring changes in fluorescence of Thioflavin T, as well as by atomic force microscopy and transmission electron microscopy. Fibrils were used immediately after their production was confirmed.
(§1) Fresh solutions of 2-4 mM probe in methanol were appropriately diluted with PBS (pH 7.4) to obtain assay solutions with final concentration range of 0.1 nM to 100 μM probe in 300-400 μL PBS (pH 7.4, 2% methanol) with 10 μM A-beta (1-40) fibrils or 6.6 μM soluble A-beta (1-42). A duplicate series of assay solutions were aliquoted with the volume of soluble A-beta or fibrils replaced by PBS. The set of solutions with probe and soluble/fibrillar A-beta and the duplicate set without A-beta were prepared and the fluorescence spectra measured in triplicate. Spectral changes in the probe's fluorescence emission spectra that were unique to the presence of A-beta indicated specific binding interactions between the probe and A-beta species. This unique spectral change allowed for the determination of the probe's binding affinity. Fluorescence emission spectra for binding affinity determinations are measured with fluorometric instrumentation known to those skilled in the art, including at least a spectrofluorometer and spectrograph. Equilibrium dissociation constants were calculated using a one-site saturation model of binding.

In assay [3] the target is T3, soluble A-beta (1-42) (Homo sapiens, UniProt P05067).
T3 construct: 1 mg of human beta-amyloid 1-42 (H-5642, Bachem); purchased Bachem H-5642; host or cells: synthetic peptide
T3 sequence (P05067 672-713 limits assumed): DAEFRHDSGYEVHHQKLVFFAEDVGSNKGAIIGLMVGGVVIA
Kind of assay: Fluorescence titration assay, soluble A-beta. It is filed as binding. The following applies: for Kd: read-out: KD of compound to soluble A-beta (1-42). As for the experimental part:
A. 1 mg of human beta-amyloid 1-42 (H-5642, Bachem) and 500 uL of 1,1,1,3,3,3 hexafluoro-2-propanol (HFIP) (Aldrich) were chilled in separate bottles on ice for 30 mins. Cold beta-amyloid 1-42 was solubilized with cold HFIP. The mixture was incubated for 1 hr at room temperature until it turned clear. The resulting solution was then dried to a film under vacuum. The film was dissolved again in cold HFIP and incubated another 1 hr at room temperature. The resulting solution was separated into aliquots in several microcentrifuge tubes. HFIP was removed under vacuum, and the films were stored at −20° C. until use. To prepare soluble oligomer, the film was dissolved in appropriate amount of dry DMSO (Sigma), and Ham's F12 media (Biosource) or PBS (Sigma, D8537) was added and incubated at 4° C. for 24 hours (final concentration of 200 uM or 0.9 mg/mL beta-amyloid in 2% DMSO). The tube containing the soluble oligomers was centrifuged at 13,000 rpm for 5 mins, and its supernatant was transferred to a clean tube.
as §1

The subject of assay [4] is beta-amyloid in PDAPP mouse brain sections. Kind of assay: Histochemical staining on PDAPP transgenic mouse brain sections. The following applies: 24-month old PDAPP, carbonate extraction buffer to remove soluble material. The format is binding. As for the experimental part: 3-month old and 24-month old PDAPP mouse brains were obtained from Eli Lilly (Indianapolis, Ind.). Fresh frozen 30 micron sections of the brains were fixed in 10% formalin. For 49b, or Thioflavin S staining, 1 mM stock solutions of 49b and Thioflavin S were prepared in 50% ethanol. The probes were diluted to 25 μM in 50% ethanol, and then applied onto the PDAPP brain sections. The slides were incubated in a humid chamber at room temperature for 1 hr. The slides were washed three times with PBS and mounting medium (Molecular Probes) was added. The slides were incubated at least 4-6 hours before imaging. For the carbonate pre-treatment of the brain sections, formalin-fixed sections were incubated with 100 μL of carbonate buffer containing 0.025 M sodium chloride and 0.1 M sodium carbonate for 45 mins at 37° C. The slides were washed three times with PBS, then 49b or Thioflavin S were applied on the slides as described above. Microscopic examination and imaging was performed using a Leica wide-field fluorescence microscope using filter cube A for 49b and cube E4 for Thioflavin S. Co-staining of the probes with 6E10 anti-beta-amyloid antibody in the PDAPP brain sections was described in the ex vivo assay using naïve rats.

For assay [5], the target named is T1, beta-amyloid 1-42 oligomer (20% biotin). Briefly: Scintillation proximity assay (SPA), direct/saturation binding of tritium labeled probe to soluble oligomers. The following applies: 90 nM 3H-cimetidine, 14 nM 3H-caffeine, 6 nM 3H-AZT; 12 ug oligomer.
Method: For SPA and atomic force microscopy (AFM) experiments, preparations of soluble oligomers and fibrils contained 20% biotinylated beta-amyloid 1-42 and 1-40, respectively (H-5642, H-5914, Bachem).
For the saturation-binding assay, isotopic dilution of radiolabeled 49b with unlabeled 49b was performed. ^3H-49b was added to 500 uM of unlabeled 49b to a final concentration of 50 μCi/mL ^3H-49b. The probe solution was then serially diluted in PBS to give six solutions giving 6.6, 13.1, 26.3, 52.5, 105, or 210 uM in the final assay well. Each concentration of the probe solution was incubated with 12 μg beta-amyloid 1-42 oligomer (20% biotin) or 1-40 (20% biotin) fibrils in a total volume of 90 μl. Assays were incubated at room temp for 2 hrs before addition of 10 μL YSi-streptavidin (0.25 mg) SPA bead. Assays were set-up in triplicate in 96-well NBS plates (Costar). Assays were incubated overnight and counted the following morning. […] Assay conditions were the same as described in saturation binding assay.
A direct binding assay using tritium labeled 49b was performed against oligomers or fibrils by scintillation proximity assay (SPA). Beta-amyloid containing 20% biotin and tritiated 49b were incubated in solution for two hours prior to addition of the Ysi-Streptavidin beads.
Setting [6] is: 10 μM A-beta (1-40) fibrils, PBS pH 7.4, 2% methanol.
Where [7] appears, read: 6.6 μM soluble A-beta (1-42), PBS pH 7.4, 2% methanol.

Several values for one entry are separate records, joined by “and”; a condition that tells them apart may be missing. Equal entries are not always repeated.

T1 sequence (P05067 672-713 limits assumed): as above
Chain of beta-amyloid in PDAPP mouse brain sections (P05067 672-711 limits assumed): as the sequence (P05067 672-711 limits assumed) above

Molecule `OCc1c(-c2ccc(-c3c(-c4ccccc4)ncn3CCF)o2)oc2ccccc12` [Compound 5c] returned an inhibition at 50 µM in assay [1] of 48%. Still for that read-out and setting: next, `CCOC(=O)c1ccc(C(O)c2ccc(-c3oc4ccccc4c3CO)o2)o1` (stereo not shown) [Compound 10c]: 57%; `OCc1c(-c2ccc(-c3cncn3CCF)o2)oc2ccccc12` [Compound 11c]: 58%; `COc1ccc(N2CCN(Cc3ccc(-c4oc5ccccc5c4COC(C)=O)o3)CC2)cc1` [Compound 3c]: 38%. On the same count and under the same terms, the result for `CC(=O)OCc1c(-c2ccc(CN3CCN(c4ccc(Cl)cc4)CC3)o2)oc2ccccc12` [Compound 9c] reads 55%; that for `N#Cc1ccc(C(O)c2ccc(-c3oc4ccccc4c3CO)o2)cc1` (stereo not shown) [Compound 6c], 51%.

With `Cc1cc(-c2oc3ccccc3c2C)ccc1F` [Compound 39b], the values for the Kd in assay [2] (setting [6]) and in assay [3] (setting [7]) were 1680 nM and > 100000 nM, respectively. Also, the “binding to A-beta (1-40) fibrils” value in assay [2] was “specifically binds”. In assay [1], `CCOC(=O)c1ccc(C(O)c2ccc(-c3oc4ccccc4c3COC(C)=O)o2)o1` (stereo not shown) [Compound 12c] displayed an inhibition at 50 µM of 59%. Same read-out and setting: next, `CC(=O)OCc1c(-c2ccc(CN3CCN(c4ccc(C(F)(F)F)cc4)CC3)o2)oc2ccccc12` [Compound 13c]: 60%; `CC(=O)OCc1c(-c2ccc(CN3CCN(c4ccc(C#N)cc4)CC3)o2)oc2ccccc12` [Compound 1c]: 24%. The molecule `COCCN1CCN(Cc2ccc(-c3oc4ccccc4c3COC(C)=O)o2)CC1` [Compound 4c] displayed an inhibition at 50 µM in assay [1] of 41%. On to `Cc1cc(-c2oc3ccccc3c2C(=O)c2ccccc2)ccc1F` [Compound 38b], for which the “KD of compound to insoluble A-beta (1-40) fibrils” value in assay [2] (setting [6]) is recorded as “Nonspecific binding”. Besides, the “binding to A-beta (1-40) fibrils” value in assay [2] is on record as “neither binds”. In addition, in assay [3] (setting [7]), the “KD of compound to soluble A-beta (1-42)” value is on record as “Nonspecific binding”. In addition, in assay [3] (fluorescence binding assays, stated in words), the “binding to soluble A-beta (1-42)” value is listed as “neither binds”. Turning to `COc1cc(-c2oc3ccccc3c2CO)cc(OC)c1OC` [Compound 37b], the Kd in assay [2] (setting [6]) is > 100000 nM; in assay [3] (setting [7]), 22 nM and 22.8 nM. Moreover, in assay [2], the “binding to A-beta (1-40) fibrils” value was “minimal specific binding”. Besides, the “increase in fluorescence intensity (and quantum yield) with soluble A-beta” value in assay [3] (relative to compound in 2% methanol in PBS) was “approximately 5 times”. Consider Thioflavin S [reference compound], for which the “staining of carbonate pre-treated brain sections” value in assay [4] is “staining remained”. For the molecule `CN/C(=N/CCSCc1nc[nH]c1C)NC#N` [cimetidine, reference compound], the “direct binding of tritium labeled probe to soluble oligomers” value in assay [5] is reported as “did not bind”. The molecule `OCc1c(-c2ccc(C(O)CCC3OCCCO3)o2)oc2ccccc12` (stereo not shown) [Compound 15c] returned an inhibition at 50 µM in assay [1] of 68%. The same measure, in the same setting: the result for `COC(=O)[C@H](C(C)C)n1cnc(-c2ccccc2)c1-c1ccc(-c2oc3ccccc3c2CO)o1` [Compound 2c] reads 30%. Same read-out and setting: next, `CC(=O)OCc1c(-c2ccc(C(O)c3ccc(F)c(Cl)c3)o2)oc2ccccc12` (stereo not shown) [Compound 8c]: 51%; `CC(=O)OCc1c(-c2ccc(CN3CCN(c4ccc(C)cc4)CC3)o2)oc2ccccc12` [Compound 14c]: 60%; `CC(=O)OCc1c(-c2ccc(C=O)o2)oc2ccccc12` [Compound 7c]: 51%.
